Data as given in publication PMC11429203, “Developing New Peptides and Peptide–Drug Conjugates for Targeting the FGFR2 Receptor-Expressing Tumor Cells and 3D Spheroids” (Biomimetics, 2024).
Where a SMILES comes first, the peptide text is derived from it. Where no end group is shown, it is not given here. The star is where a group is joined. Doxorubicin(3'-N) = COc1cccc2c1C(=O)c1c(O)c3c(c(O)c1C2=O)C[C@@](O)(C(=O)CO)C[C@@H]3O[C@H]1C[C@H](N*)[C@H](O)[C@H](C)O1

Key:
Assay type in all cases: cell-based, human
[1] = test system: co-cultured spheroids of KATO (III) cells and colon tumor-associated fibroblasts (CAFs); assay: Permeation into 3D co-cultured spheroids (fluorescence imaging); settings: for Permeation of DOX conjugates and neat DOX into spheroids / Permeation of carboxyfluorescein-tagged peptides into spheroids: 1 µM, spheroids grown 6 days at 2000 cells/well, fluorescence imaging; for Permeation of DOX conjugates and neat DOX into spheroids: inherent DOX fluorescence; for Penetration depth from Image J plot profiles of fluorescence intensity, periphery to center: semi-quantitative mean normalized intensity, mean from 3 spheroids; for Permeation of carboxyfluorescein-tagged peptides into spheroids: 24 h incubation
Experimental: To mimic the tumor microenvironment, 3D cultures of tumor cells (spheroids) were grown. For growing spheroids, co-cultures of human colon-associated tumor fibroblasts and KATO III gastric cancer cells were grown in a 1:3 ratio in a growth media containing IMDM and fibroblast growth medium. Spheroids grown at 2000 cells/well and 4000 cells/well were co-cultured in Nunclon Sphera nonadherent 12-well plates and allowed to grow over a period of two weeks. The growth of the spheroids was monitored using optical microscopy. Media was cautiously removed every two days, and replaced with new medium.
The co-cultured spheroids were grown at a density of 2000 cells/well for six days prior to treatment with the peptides or the peptide–drug conjugates. To visualize the internalization of the peptides, those were first tagged with fluorescein to allow for visualization through fluorescence microscopy. For tagging, each peptide was tagged with NHS-Fluorescein (5/6-carboxyfluorescein succinimidyl ester to allow for binding with the amine group of the peptides). To each peptide solution (10 µM), 1 µM of the dye solution was added and allowed to shake in the dark for 24 h. The solutions were then centrifuged and washed with deionized water twice to remove any unbound dye. Then, peptide solutions were vortexed and allowed to incubate with the spheroids. For the drug conjugates, no tagging was done, due to inherent fluorescence of DOX. In general, 1 µM solutions of the peptides or drug conjugates were used. The spheroids were then visualized using fluorescent microscopy using an inverted Amscope IN480TC-20MB13 microscope at various magnifications.
To visualize the internalization of the peptides and the peptide–drug conjugates in the spheroids, we conducted fluorescence microscopy using an Amscope Inverted Phase-Contrast Fluorescence Microscope. Samples were imaged at various magnifications.
It is well known that constrained interstitial penetration may impede the diffusion of drugs into tumors, thus affecting efficacy. […] Their entry within the spheroids was examined through fluorescence imaging. In the case of the conjugates, because DOX is inherently fluorescent, fluorescence images were taken without tagging. […] The plot profiles obtained from the edge of the spheroid to the center were measured. On average, five measurements were carried out for images of each of the spheroids that were incubated with DOX-conjugated peptides, as well as with neat DOX. The fluoresence intensity from the periphery to the center of the spheroid was measured.

KATO (III) tumor cells = assay: Phase contrast imaging of cell morphology after treatment; settings: 1 µM, 24 h, phase contrast microscopy
Experimental: Cells were plated in 96-well plates at a density of 1 × 10^4 cells/well. WST-8 assays (Cayman Chemicals, Ann Arbor, MI, USA) were conducted in triplicate for non-cancer primary fibroblasts, as well as for KATO III cells, following manufacturer instructions from the assay kit. In general, varying concentrations of the peptides and the DOX conjugates were utilized. The concentrations used were 0.1 µM, 0.5 µM, 1 µM, 2 µM and 5 µM. Neat DOX (1 µM, 2 µM) was also compared. The peptides or drug conjugates or DOX were allowed to incubate with cells for 24 h, and imaged using a phase contrast optical microscope before analysis. Following incubation with WST-8 reagent according to manufacturer instructions, absorbance at 450 nm was measured using a Biotek microplate reader. The absorbance of DOX in media was subtracted.
To investigate the impact of the peptides and the peptide–DOX conjugates on KATO (III) tumor cells, we conducted cytotoxicity studies.

[2] = test system: KATO III gastric cancer cells; assay: WST-8 cytotoxicity assay, tumor cells; settings: 24 h, WST-8, highest concentration (5 µM), triplicate
Experimental: Three cell lines were cultured in 50 mL sterile falcon tissue culture flasks. These included the FGFR2-expressing KATO III gastric cancer cell line (ATCC HTB-103), human colon cancer-associated tumor fibroblasts (HC-6231, Cell Biologics), and primary lung fibroblasts (normal) as control (ATCC-PCS-201-013). Both lines of fibroblasts were grown in Fibroblast Growth Media, and KATO III cells were cultured in Iscove’s Modified Dulbecco’s Medium (IMDM). All growth media were supplement with 10% fetal bovine serum (ATCC), 3 mL of 1X antibiotic-antimycotic mixture per 500 mL medium (GIBCO), 10 units/mL penicillin and 10 μg/mL streptomycin (GIBCO). Each cell line was incubated at 37 °C in a 5% CO2 incubator. Cells were grown to confluence, and the medium was changed every 2 to 3 days. Confluent cells were split twice a week.
Cells were plated in 96-well plates at a density of 1 × 10^4 cells/well. WST-8 assays (Cayman Chemicals, Ann Arbor, MI, USA) were conducted in triplicate for non-cancer primary fibroblasts, as well as for KATO III cells, following manufacturer instructions from the assay kit. […] Following incubation with WST-8 reagent according to manufacturer instructions, absorbance at 450 nm was measured using a Biotek microplate reader. The absorbance of DOX in media was subtracted.
To quantify the effects of the cytotoxicity of the peptides and the DOX conjugates, we conducted WST-8 assays. […]

Compound: ACSAGLPHVLTPEAGATGASCA-(DOX)2 [Trimer-pep-(DOX)2]
- Permeation of DOX conjugates and neat DOX into spheroids [1]: relatively higher penetration
- Penetration depth from Image J plot profiles of fluorescence intensity, periphery to center [1]: penetrate deeper

Compound: CC(C)C[C@H](NC(=O)[C@@H](NC(=O)[C@H](Cc1c[nH]cn1)NC(=O)[C@@H]1CCCN1C(=O)[C@@H](N)CC(C)C)C(C)C)C(=O)N[C@H](C(=O)N1CCC[C@H]1C(=O)N[C@@H](CCC(=O)O)C(=O)N[C@@H](C)C(=O)NCC(=O)N[C@@H](C)C(=O)N[C@H](C(=O)O)[C@@H](C)O)[C@@H](C)O [L-pep]
- Permeation of carboxyfluorescein-tagged peptides into spheroids [1]: relatively higher fluorescence was observed in the outlayers compared to the core
- Cell morphology after treatment (KATO (III) tumor cells): appeared spherical

Compound: COc1cccc2c1C(=O)c1c(O)c3c(c(O)c1C2=O)C[C@@](O)(C(=O)CO)C[C@@H]3O[C@H]1C[C@H](NC(=O)CNC(=O)[C@H](C)NC(=O)[C@H](CO)NC(=O)[C@H](CS)NC(=O)[C@H](C)N)[C@H](O)[C@H](C)O1 [A-pep-DOX] (H-ACSAG-{Doxorubicin(3'-N)}; N-terminus assumed)
- Permeation of DOX conjugates and neat DOX into spheroids [1]: higher fluorescence
- Penetration depth from Image J plot profiles of fluorescence intensity, periphery to center [1]: penetrate deeper
- Cell morphology after treatment (KATO (III) tumor cells): appeared to bleb and burst
- Cell viability [2]: 9%

Compound: COc1cccc2c1C(=O)c1c(O)c3c(c(O)c1C2=O)C[C@@](O)(C(=O)CO)C[C@@H]3O[C@H]1C[C@H](N)[C@H](O)[C@H](C)O1 [DOX, Doxorubicin, reference compound]
- Permeation of DOX conjugates and neat DOX into spheroids [1]: marginal internalization

Compound: ACSAG [A-pep]
- Permeation of carboxyfluorescein-tagged peptides into spheroids [1]: higher internalization
- Cell morphology after treatment (KATO (III) tumor cells): loss of morphology and adhesive properties

Compound: COc1cccc2c1C(=O)c1c(O)c3c(c(O)c1C2=O)C[C@@](O)(C(=O)CO)C[C@@H]3O[C@H]1C[C@H](NC(=O)CC[C@H](NC(=O)[C@@H]2CCCN2C(=O)[C@@H](NC(=O)[C@H](CC(C)C)NC(=O)[C@@H](NC(=O)[C@H](Cc2c[nH]cn2)NC(=O)[C@@H]2CCCN2C(=O)[C@@H](N)CC(C)C)C(C)C)[C@@H](C)O)C(=O)N[C@@H](C)C(=O)NCC(=O)N[C@@H](C)C(=O)N[C@H](C(=O)N[C@H]2C[C@H](O[C@H]3C[C@](O)(C(=O)CO)Cc4c(O)c5c(c(O)c43)C(=O)c3c(OC)cccc3C5=O)O[C@@H](C)[C@H]2O)[C@@H](C)O)[C@H](O)[C@H](C)O1 [L-pep-(DOX)2]
- Permeation of DOX conjugates and neat DOX into spheroids [1]: comparatively lower intensity of fluorescence
- Cell viability [2]: 7%
